Measured values from US20210163485A1, “Heterocyclic Compounds for the Treatment of Disease” (Oppilan Pharma Ltd., priority 2017, published 2021).

Biological target: T1, full-length human S1P1 (Homo sapiens, UniProt P21453)
T1 construct: CHO-K1 Gαqi5 cells expression full-length human S1P1; expressed in transfected cells; host or cells: CHO-K1 Gαqi5 cells (membrane preparation)
Experiment: GTPγS binding assay (scintillation proximity assay) with S1P1 membranes
Format: biochemical
Details: S1P1 membrane from CHO-K1 Gαqi5 cells; GTPγ35S SPA, 60 minutes incubation
Experimental: S1P1 membrane is prepared from CHO-K1 Gαqi5 cells expression full-length human S1P1. Scintillation proximity assay (SPA) is performed by incubating membranes, GTPγ^35S, and compounds at various concentrations for 60 minutes. Wheat germ agglutinin-coated SPA beads are added and incubated for 60 minutes before centrifugation and scintillation counting.

T1 sequence (P21453 whole entry): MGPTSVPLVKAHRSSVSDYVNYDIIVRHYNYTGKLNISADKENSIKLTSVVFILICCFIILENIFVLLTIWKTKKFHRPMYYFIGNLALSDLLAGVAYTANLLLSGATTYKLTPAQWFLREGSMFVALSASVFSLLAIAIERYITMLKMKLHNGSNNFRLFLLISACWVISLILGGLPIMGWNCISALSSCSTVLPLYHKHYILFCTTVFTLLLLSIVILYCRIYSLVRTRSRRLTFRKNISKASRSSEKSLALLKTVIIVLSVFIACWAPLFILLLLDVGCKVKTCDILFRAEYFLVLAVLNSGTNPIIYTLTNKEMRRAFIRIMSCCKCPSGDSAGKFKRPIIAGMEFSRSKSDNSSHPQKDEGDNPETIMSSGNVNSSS

| EC50 | Structure (SMILES) |
| --- | --- |
| < 100 nM | CC(CO)Oc1cc(Cl)c(-c2noc(-c3cn4cc(C(F)(F)F)ncc4n3)n2)cc1Cl (stereo not shown) [Compound 7, 2-(2,5-dichloro-4-(5-(6-(trifluoromethyl)imidazo[1,2-a]pyrazin-2-yl)-1,2,4-oxadiazol-3-yl)phenoxy)propan-1-ol] |
| < 100 nM | OC[C@H](O)COc1cc(Cl)c(-c2noc(-c3cn4cc(C(F)(F)F)ncc4n3)n2)cc1Cl [Compound 8, (S)-3-(2,5-dichloro-4-(5-(6-(trifluoromethyl)imidazo[1,2-a]pyrazin-2-yl)-1,2,4-oxadiazol-3-yl)phenoxy)propane-1,2-diol] |
| < 100 nM | OC[C@@H](O)COc1cc(Cl)c(-c2noc(-c3cn4cc(C(F)(F)F)ncc4n3)n2)cc1Cl [Compound 9, (R)-3-(2,5-dichloro-4-(5-(6-(trifluoromethyl)imidazo[1,2-a]pyrazin-2-yl)-1,2,4-oxadiazol-3-yl)phenoxy)propane-1,2-diol] |
| < 100 nM | N[C@@H](CO)COc1cc(Cl)c(-c2noc(-c3cn4nc(C(F)(F)F)ccc4n3)n2)cc1Cl [Compound 19, (S)-2-amino-3-(2,5-dichloro-4-(5-(6-(trifluoromethyl)imidazo[1,2-b]pyridazin-2-yl)-1,2,4-oxadiazol-3-yl)phenoxy)propan-1-ol] |
| 100 to 1000 nM | CC(CO)Oc1cc(Cl)c(-c2noc(-c3cn4nc(C(F)(F)F)ccc4n3)n2)cc1Cl (stereo not shown) [Compound 21, 2-(2,5-dichloro-4-(5-(6-(trifluoromethyl)imidazo[1,2-b]pyridazin-2-yl)-1,2,4-oxadiazol-3-yl)phenoxy)propan-1-ol] |
| 100 to 1000 nM | OC[C@H](O)COc1cc(Cl)c(-c2noc(-c3cn4nc(C(F)(F)F)ccc4n3)n2)cc1Cl [Compound 22, (S)-3-(2,5-dichloro-4-(5-(6-(trifluoromethyl)imidazo[1,2-b]pyridazin-2-yl)-1,2,4-oxadiazol-3-yl)phenoxy)propane-1,2-diol] |
| < 100 nM | N[C@@H](CO)COc1cc(Cl)c(-c2noc(-c3cn4cc(C(F)(F)F)ncc4n3)n2)cc1Cl [Compound 24, (S)-2-amino-3-(2,5-dichloro-4-(5-(6-(trifluoromethyl)imidazo[1,2-a]pyrazin-2-yl)-1,2,4-oxadiazol-3-yl)phenoxy)propan-1-ol] |
